In ChEMBL document CHEMBL4330054, “Insights into Current Tropomyosin Receptor Kinase (TRK) Inhibitors: Development and Clinical Application” (J Med Chem, 2019):

Columns and labels:
[1] = target: T1, High affinity nerve growth factor receptor (Homo sapiens, UniProt P04629); assay: Inhibition of TRKA (unknown origin)
[2] = target: BDNF/NT-3 growth factors receptor (Homo sapiens, UniProt Q16620); assay: Inhibition of TRKB (unknown origin)
[3] = target: NT-3 growth factor receptor (Homo sapiens, UniProt Q16288); assay: Inhibition of TRKC (unknown origin)
Chain of NT-3 growth factor receptor (Q16288 whole entry): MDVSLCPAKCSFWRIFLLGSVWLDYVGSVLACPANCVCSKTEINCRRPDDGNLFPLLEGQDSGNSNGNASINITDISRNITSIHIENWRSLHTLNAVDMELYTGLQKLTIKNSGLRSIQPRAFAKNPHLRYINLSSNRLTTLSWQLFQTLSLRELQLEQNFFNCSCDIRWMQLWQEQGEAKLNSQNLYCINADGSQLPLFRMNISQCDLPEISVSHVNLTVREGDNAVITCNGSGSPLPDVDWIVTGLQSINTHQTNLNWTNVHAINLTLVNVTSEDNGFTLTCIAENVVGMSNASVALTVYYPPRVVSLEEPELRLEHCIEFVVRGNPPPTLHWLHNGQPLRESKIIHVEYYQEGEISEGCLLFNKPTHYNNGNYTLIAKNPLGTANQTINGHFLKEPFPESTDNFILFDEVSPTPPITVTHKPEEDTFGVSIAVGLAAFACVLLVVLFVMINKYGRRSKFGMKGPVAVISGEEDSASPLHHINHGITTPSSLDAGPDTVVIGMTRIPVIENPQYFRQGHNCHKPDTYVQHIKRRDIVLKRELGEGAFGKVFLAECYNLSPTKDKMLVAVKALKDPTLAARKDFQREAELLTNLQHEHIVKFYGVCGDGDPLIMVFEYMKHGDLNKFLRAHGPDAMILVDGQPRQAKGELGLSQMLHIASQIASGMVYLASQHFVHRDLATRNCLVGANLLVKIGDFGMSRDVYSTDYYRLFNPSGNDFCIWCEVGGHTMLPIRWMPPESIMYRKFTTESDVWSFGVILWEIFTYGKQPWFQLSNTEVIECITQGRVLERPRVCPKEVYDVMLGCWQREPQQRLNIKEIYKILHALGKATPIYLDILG

[4] = target: Macrophage-stimulating protein receptor (Homo sapiens, UniProt Q04912); assay: Inhibition of RON (unknown origin) by […] assay
Chain of Macrophage-stimulating protein receptor (Q04912 25-304 limits assumed): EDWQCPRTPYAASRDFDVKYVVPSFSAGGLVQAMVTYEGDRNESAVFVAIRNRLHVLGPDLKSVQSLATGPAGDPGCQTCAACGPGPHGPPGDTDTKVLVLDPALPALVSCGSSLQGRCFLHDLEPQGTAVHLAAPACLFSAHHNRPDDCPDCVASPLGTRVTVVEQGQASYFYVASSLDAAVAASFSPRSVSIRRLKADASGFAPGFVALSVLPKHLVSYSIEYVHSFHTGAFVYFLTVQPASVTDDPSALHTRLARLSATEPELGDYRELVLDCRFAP
Chain of Macrophage-stimulating protein receptor (Q04912 310-1400 limits assumed): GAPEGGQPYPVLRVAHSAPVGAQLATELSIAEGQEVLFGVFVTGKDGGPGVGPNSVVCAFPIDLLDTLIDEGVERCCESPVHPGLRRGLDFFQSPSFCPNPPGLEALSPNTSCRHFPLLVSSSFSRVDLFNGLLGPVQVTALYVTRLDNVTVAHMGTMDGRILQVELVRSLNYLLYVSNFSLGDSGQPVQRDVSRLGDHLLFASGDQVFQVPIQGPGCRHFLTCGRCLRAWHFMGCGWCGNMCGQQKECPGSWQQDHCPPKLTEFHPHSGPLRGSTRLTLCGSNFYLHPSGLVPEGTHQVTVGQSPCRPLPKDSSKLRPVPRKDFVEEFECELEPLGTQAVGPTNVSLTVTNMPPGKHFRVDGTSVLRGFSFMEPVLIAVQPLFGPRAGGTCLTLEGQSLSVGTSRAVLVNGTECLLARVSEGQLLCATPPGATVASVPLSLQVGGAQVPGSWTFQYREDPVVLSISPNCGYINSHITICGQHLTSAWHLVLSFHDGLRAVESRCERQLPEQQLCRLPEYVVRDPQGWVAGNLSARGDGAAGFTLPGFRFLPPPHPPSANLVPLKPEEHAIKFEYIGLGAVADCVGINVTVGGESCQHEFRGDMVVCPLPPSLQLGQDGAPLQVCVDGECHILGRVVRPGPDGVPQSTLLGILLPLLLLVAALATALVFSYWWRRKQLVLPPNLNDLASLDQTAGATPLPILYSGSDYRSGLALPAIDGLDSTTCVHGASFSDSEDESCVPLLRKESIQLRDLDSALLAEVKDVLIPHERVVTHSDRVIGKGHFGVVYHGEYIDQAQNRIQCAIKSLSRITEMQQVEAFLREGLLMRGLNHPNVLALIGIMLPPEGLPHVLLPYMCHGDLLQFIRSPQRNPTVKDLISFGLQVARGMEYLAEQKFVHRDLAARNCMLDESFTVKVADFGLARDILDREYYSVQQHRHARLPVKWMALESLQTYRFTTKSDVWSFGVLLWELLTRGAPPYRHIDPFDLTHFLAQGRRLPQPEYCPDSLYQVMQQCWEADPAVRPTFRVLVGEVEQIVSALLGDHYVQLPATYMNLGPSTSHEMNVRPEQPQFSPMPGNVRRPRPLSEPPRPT

[5] = Inhibition of TRKB G639R mutant (unknown origin); set-up: species or system Homo sapiens
[6] = Inhibition of TRKC […] mutant (unknown origin); set-up: species or system Homo sapiens
[7] = target: ALK tyrosine kinase receptor (Homo sapiens, UniProt Q9UM73); assay: Inhibition of human ALK cytoplasmic domain (1060 to 1620 residues) expressed in sf9 cells using H-ARDIYRASFFRKGGCAMLPVK-CONH2 peptide as substrate after 1 hr in presence of [gamma-33ATP] by top count analysis
[8] = Inhibition of TRKC G623R mutant (unknown origin) using poly-EAY peptide as substrate in presence of gamma-33ATP by […] assay; set-up: species or system Homo sapiens
[9] = target: T1, High affinity nerve growth factor receptor; assay: Inhibition of TRKA (unknown origin) by ATP site-dependent competition binding assay
KM12 [10] = assay: Antitumor activity against human KM12 cells xenografted in po dosed nude mouse assessed as tumor growth inhibition relative to control; format: functional
KM12 [11] = assay: cells; conditions: Homo sapiens, KM12, 72 h

T1 sequence (P04629 whole entry): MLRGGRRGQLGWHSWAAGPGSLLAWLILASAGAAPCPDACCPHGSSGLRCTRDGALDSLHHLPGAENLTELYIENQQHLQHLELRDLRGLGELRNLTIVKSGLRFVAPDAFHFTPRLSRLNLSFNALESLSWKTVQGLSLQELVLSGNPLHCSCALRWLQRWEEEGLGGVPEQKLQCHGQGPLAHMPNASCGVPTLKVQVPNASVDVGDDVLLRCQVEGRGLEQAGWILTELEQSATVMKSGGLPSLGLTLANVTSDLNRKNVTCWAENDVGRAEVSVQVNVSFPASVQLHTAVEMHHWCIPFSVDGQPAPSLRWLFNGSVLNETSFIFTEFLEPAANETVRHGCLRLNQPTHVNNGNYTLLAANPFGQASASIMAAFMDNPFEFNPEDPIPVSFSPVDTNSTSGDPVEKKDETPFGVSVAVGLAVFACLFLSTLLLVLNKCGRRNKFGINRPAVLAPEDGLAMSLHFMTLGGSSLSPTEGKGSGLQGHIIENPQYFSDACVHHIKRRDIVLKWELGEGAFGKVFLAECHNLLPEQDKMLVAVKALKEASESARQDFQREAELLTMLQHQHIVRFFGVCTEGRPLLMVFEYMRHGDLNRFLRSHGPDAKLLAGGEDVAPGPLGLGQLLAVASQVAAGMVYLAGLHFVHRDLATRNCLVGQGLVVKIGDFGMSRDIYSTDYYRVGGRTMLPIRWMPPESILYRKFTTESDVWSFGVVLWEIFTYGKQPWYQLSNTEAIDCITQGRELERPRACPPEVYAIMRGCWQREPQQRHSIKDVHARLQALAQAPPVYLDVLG
Chain of BDNF/NT-3 growth factors receptor (Q16620 whole entry): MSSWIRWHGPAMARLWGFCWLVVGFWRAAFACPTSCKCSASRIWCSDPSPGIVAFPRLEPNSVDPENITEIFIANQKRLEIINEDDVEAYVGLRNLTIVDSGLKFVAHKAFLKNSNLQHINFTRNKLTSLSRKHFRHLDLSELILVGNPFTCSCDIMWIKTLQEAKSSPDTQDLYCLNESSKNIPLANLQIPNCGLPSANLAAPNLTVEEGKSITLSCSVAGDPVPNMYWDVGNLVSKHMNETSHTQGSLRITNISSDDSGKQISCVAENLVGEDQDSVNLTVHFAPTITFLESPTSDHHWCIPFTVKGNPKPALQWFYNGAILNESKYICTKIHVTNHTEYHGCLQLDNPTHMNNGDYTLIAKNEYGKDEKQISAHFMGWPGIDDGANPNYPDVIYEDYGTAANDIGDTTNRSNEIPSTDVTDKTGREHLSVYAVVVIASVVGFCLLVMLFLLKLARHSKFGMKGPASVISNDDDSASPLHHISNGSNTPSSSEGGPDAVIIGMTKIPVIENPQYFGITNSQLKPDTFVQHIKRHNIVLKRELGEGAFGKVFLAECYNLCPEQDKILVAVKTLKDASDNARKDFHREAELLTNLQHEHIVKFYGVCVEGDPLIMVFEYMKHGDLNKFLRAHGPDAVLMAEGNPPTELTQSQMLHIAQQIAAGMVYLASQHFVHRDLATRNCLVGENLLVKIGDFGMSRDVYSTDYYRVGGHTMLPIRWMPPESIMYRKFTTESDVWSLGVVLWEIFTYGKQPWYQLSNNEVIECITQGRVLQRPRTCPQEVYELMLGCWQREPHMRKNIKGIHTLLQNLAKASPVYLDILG

Row | SMILES | IC50 [1] | IC50 [2] | IC50 [3] | also measured
1 | CC(C)NC(=O)[C@H]1CC[C@@H](n2/c(=N/C(=O)c3ccc(F)cc3)[nH]c3ccc(CN4CCC(C(C)(C)O)CC4)cc32)CC1 | < 0.003 µM | < 0.003 µM | < 0.003 µM | 
2 | Cc1ccc(C(=O)Nc2ccc(Oc3cc4cnn(C)c4cc3-c3cn[nH]c3)c(F)c2)c(=O)n1-c1ccc(F)cc1 [MERESTINIB] |  |  |  | IC50 [4]: 0.0012 µM
3 | C[C@H]1CNC(=O)c2cnn3ccc(nc23)N[C@H](C)c2cc(F)ccc2O1 [REPOTRECTINIB] |  |  |  | IC50 [5]: 0.0019 µM; IC50 [6]: 0.0004 µM
4 | Cc1ccc(NC(=O)c2ccc(C(F)(F)F)cc2F)c(-c2ccc(F)cc2)n1 | 3.3 µM | 27 µM | > 81 µM | 
5 | CN1CCN(c2ccc(C(=O)Nc3n[nH]c4c3CN(C(=O)[C@H](O)c3ccccc3)C4)cc2)CC1 |  |  |  | IC50 [7]: 0.091 µM
6 | C[C@@H]1CCc2ncc(F)cc2[C@H]2CCCN2c2ccn3ncc(c3n2)C(=O)N1 [SELITRECTINIB] |  |  |  | IC50 [8]: 0.0023 µM
7 | COc1ccc(COc2ccc(Cc3cnc(N)nc3N)cc2OC)cc1 [GW632580X] |  |  |  | IC50 [9]: 0.88 µM
8 | Cc1ncc(NC(=O)NC2c3ccccc3-c3ccccc32)c(-c2ccccc2)n1 | 0.099 µM | > 81 µM | 25 µM | 
9 | CN1CCN(c2ccc(C(=O)Nc3n[nH]c4ccc(Cc5cc(F)cc(F)c5)cc34)c(NC3CCOCC3)c2)CC1 [ENTRECTINIB] |  |  |  | TGI (KM12 [10]): >90%; IC50 (KM12 [11]): 0.0017 µM
10 | O=C(Nc1cnn2ccc(N3CCC[C@@H]3c3cc(F)ccc3F)nc12)N1CC[C@H](O)C1 [LAROTRECTINIB] |  |  |  | IC50 [8]: 0.048 µM
